Experimental data taken from patent US8686010B2, “Aryl- or heteroaryl-sulfonyl compounds as acid secretion inhibitors” (Takeda Pharmaceutical Company Limited, priority 2006, dated 2014).
Counter-ions that a name gives are not always drawn.

Target: T1, H+,K+-ATPase (Sus scrofa, UniProt P19156)
T1 construct: The obtained microsomal fraction was used as a proton, potassium—adenosine triphosphatase standard product; from tissue; host or cells: swine stomach, gastric mucous membrane microsomal fraction
T1 sequence (P19156 2-1034 limits assumed): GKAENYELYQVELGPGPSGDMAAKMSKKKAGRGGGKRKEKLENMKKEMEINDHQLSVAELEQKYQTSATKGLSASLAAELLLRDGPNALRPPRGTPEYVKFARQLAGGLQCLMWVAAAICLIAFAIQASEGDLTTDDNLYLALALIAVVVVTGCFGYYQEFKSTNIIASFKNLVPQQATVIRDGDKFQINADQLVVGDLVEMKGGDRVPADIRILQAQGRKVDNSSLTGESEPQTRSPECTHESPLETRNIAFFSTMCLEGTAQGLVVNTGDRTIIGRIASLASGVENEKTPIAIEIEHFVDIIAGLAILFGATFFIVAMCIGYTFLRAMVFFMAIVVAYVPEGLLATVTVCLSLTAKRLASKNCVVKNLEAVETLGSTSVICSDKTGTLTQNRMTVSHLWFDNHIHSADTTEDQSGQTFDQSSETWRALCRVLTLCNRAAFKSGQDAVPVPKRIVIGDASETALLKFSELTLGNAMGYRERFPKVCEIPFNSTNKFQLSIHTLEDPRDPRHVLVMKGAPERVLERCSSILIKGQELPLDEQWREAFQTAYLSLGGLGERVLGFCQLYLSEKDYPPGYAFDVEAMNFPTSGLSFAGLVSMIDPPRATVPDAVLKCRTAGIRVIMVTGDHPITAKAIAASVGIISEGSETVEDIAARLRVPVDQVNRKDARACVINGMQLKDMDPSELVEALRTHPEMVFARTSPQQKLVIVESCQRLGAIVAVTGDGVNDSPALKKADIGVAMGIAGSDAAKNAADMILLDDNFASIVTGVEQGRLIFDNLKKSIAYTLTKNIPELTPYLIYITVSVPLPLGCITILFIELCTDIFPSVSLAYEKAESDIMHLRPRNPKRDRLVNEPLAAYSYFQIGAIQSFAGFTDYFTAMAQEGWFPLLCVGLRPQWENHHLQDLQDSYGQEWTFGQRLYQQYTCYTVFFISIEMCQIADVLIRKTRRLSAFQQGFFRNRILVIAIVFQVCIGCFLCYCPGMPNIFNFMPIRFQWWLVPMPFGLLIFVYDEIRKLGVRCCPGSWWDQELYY
T1 sequence (P18434 whole entry partner): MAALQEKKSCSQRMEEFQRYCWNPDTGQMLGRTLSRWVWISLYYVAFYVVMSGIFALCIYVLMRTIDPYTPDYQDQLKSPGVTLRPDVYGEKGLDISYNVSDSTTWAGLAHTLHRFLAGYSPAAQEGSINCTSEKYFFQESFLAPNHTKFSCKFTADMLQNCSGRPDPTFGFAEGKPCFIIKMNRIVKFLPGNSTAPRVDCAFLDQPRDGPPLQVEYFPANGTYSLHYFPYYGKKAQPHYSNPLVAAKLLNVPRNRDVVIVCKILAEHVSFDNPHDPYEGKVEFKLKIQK
Experiment: Proton potassium-adenosine triphosphatase (H+,K+-ATPase) inhibitory activity test
Type: biochemical
Details: gastric mucous membrane microsomal fraction from swine stomach; pH 6.5, 37° C., malachite green colorimetry at 610 nm; read-out: IC50 (50% inhibitory concentration of proton, potassium-adenosine triphosphatase)
Method: Proton Potassium—Adenosine Triphosphatase (H^+,K^+-ATPase) Inhibitory Activity Test
According to the method [Biochim. Biophys. Acta, 728, 31 (1983)] of Wallmark et al., a gastric mucous membrane microsomal fraction was prepared from the stomach of swine. First, the stomach was removed, washed with tap water, immersed in 3 mol/L brine, and the surface of the mucous membrane was wiped with a paper towel. The gastric mucous membrane was detached, chopped, and homogenized in a 0.25 mol/L saccharose solution (pH 6.8) containing 1 mmol/L EDTA and 10 mmol/L tris-hydrochloric acid using polytron (Kinematica). The obtained homogenate was centrifuged at 20,000×g for 30 min and the supernatant was centrifuged at 100,000×g for 90 min. The precipitate was suspended in 0.25 mol/L saccharose solution, superimposed on a 0.25 mol/L saccharose solution containing 7.5% Ficoll, and centrifuged at 100,000×g for 5 hr. The fraction containing the interface between the both layers was recovered, and centrifugally washed with 0.25 mol/L saccharose solution.
The obtained microsomal fraction was used as a proton, potassium—adenosine triphosphatase standard product.
To 40 μL of a 50 mmol/L HEPES-tris buffer (5 mmol/L magnesium chloride, 10 mmol/L potassium chloride, 10 μmol/L valinomycin, pH=6.5) containing 2.5 μg/mL (based on the protein concentration) of the enzyme standard product was added a test compound (5 μL) dissolved in a 10% aqueous dimethyl sulfoxide solution, and the mixture was incubated at 37° C. for 30 min. The enzyme reaction was started by adding 5 μL of a 2 mmol/L adenosine triphosphate tris salt solution (50 mmol/L HEPES-tris buffer (5 mmol/L magnesium chloride, pH 6.5)). The enzyme reaction was performed at 37° C. for 20 min, and 15 μL of a malachite green solution (0.12% malachite green solution in sulfuric acid (2.5 mol/L), 7.5% ammonium molybdate and 11% Tween 20 were mixed at a ratio of 100:25:2) was added to quench the reaction. After allowing to stand at room temperature for 15 min, the resulting reaction product of inorganic phosphorus with malachite green was colorimetrically determined at a wavelength of 610 nm. In addition, the amount of the inorganic phosphoric acid in the reaction solution free of potassium chloride was measured in the same manner, which was subtracted from the inorganic phosphoric acid amount in the presence of potassium chloride to determine the proton, potassium—adenosine triphosphatase activity. The inhibitory rate (%) was determined from the activity value of the control activity value and the activity values of various concentrations of the test compound, and the 50% inhibitory concentration (IC50) of the proton, potassium-adenosine triphosphatase was determined.

Row | IC50 [nM] | SMILES
1 | 180 | CNCc1cn(-c2ccccc2)c(S(=O)(=O)c2ccccc2)c1C [Example 1, N-methyl-1-[4-methyl-1-phenyl-5-(phenylsulfonyl)-1H-pyrrol-3-yl]methanamine hydrochloride]
2 | 160 | Cc1ccc(S(=O)(=O)n2cc(CN(C)C)nc2-c2ccccc2)cc1 [Example 5, N,N-dimethyl-1-{1-[(4-methylphenyl)sulfonyl]-2-phenyl-1H-imidazol-4-yl}methanamine 0.5 oxalate]
3 | 30 | CNCc1cn(S(=O)(=O)c2cccc(OC)c2)c(-c2ccccc2)n1 [Example 7, 1-{1-[(3-methoxyphenyl)sulfonyl]-2-phenyl-1H-imidazol-4-yl}-N-methylmethanamine fumarate]
4 | 170 | CNCc1nc(-c2ccccc2)c(S(=O)(=O)c2ccccc2)s1 [Example 12, N-methyl-1-[4-phenyl-5-(phenylsulfonyl)-1,3-thiazol-2-yl]methanamine hydrochloride]
